Experimental data reported in PMC8815882, “Screening the pandemic response box identified benzimidazole carbamates, Olorofim and ravuconazole as promising drug candidates for the treatment of eumycetoma” (PLoS Neglected Tropical Diseases, 2022).
Like-named read-outs stand apart in the source and are kept apart here.

System: M. mycetomatis genome strain MM55
Assay: CLSI M38-A2 based in vitro susceptibility screening (XTT or resazurin), growth at fixed concentration
Type: cell-based, Madurella mycetomatis
Settings: Madurella mycetomatis
[1] = mean of three replicates, read-out: Percentage survival at 25um, 25 uM mean
[2] = replicate A, read-out: Percentage survival at 25um, 25 um A
[3] = replicate B, read-out: Percentage survival at 25um, 25 uM B
[4] = replicate C, read-out: Percentage survival at 25um, 25 uM C
[5] = first replicate column, read-out: Percentage survival at 100um, 100 uM A
[6] = mean of three replicates, read-out: Percentage survival at 100um, 100 uM mean
[7] = second replicate column, read-out: Percentage survival at 100um, 100 uM A
[8] = third replicate column, read-out: Percentage survival at 100um, 100 uM A
[9] = mean of replicates, MM55, read-out: Percentage survival at 25um, 25 uM mean
[10] = replicate A, MM55, read-out: Percentage survival at 25um, 25 um A
[11] = replicate B, MM55, read-out: Percentage survival at 25um, 25 uM B
[12] = replicate C, MM55, read-out: Percentage survival at 25um, 25 uM C
[13] = mean of replicates, MM55, read-out: Percentage survival at 100um, 100 uM mean
[14] = replicate 1, MM55, read-out: Percentage survival at 100um, 100 uM A
[15] = replicate 2, MM55, read-out: Percentage survival at 100um, 100 uM A
[16] = replicate 3, MM55, read-out: Percentage survival at 100um, 100 uM A
[17] = mean of replicates, read-out: Percentage survival at 25um, 25 uM mean
[18] = mean of replicates, read-out: Percentage survival at 100um, 100 uM mean
[19] = replicate 1, read-out: Percentage survival at 100um, 100 uM A
[20] = replicate 2, read-out: Percentage survival at 100um, 100 uM A
[21] = replicate 3, read-out: Percentage survival at 100um, 100 uM A
[22] = mean, read-out: Percentage survival at 25um, 25 uM mean
[23] = mean, read-out: Percentage survival at 100um, 100 uM mean
[24] = replicate (first column), read-out: Percentage survival at 100um, 100 uM A
[25] = replicate (second column), read-out: Percentage survival at 100um, 100 uM A
[26] = replicate (third column), read-out: Percentage survival at 100um, 100 uM A

Compound	activity at 25 µM [2] [%]	activity at 25 µM [3] [%]	activity at 25 µM [4] [%]	activity at 25 µM [9] [%]	activity at 25 µM [10] [%]	activity at 25 µM [11] [%]	activity at 25 µM [12] [%]	activity at 100 µM [13] [%]	activity at 100 µM [14] [%]	activity at 100 µM [15] [%]	activity at 100 µM [16] [%]	activity at 25 µM [22] [%]	activity at 100 µM [23] [%]	activity at 100 µM [24] [%]	activity at 100 µM [25] [%]	activity at 100 µM [26] [%]	other results
CCc1ccccc1OCCN1CCCCCC1 [MMV1633962]	47.9	69.8	62.5														activity at 25 µM [1]: 60.1%; activity at 100 µM [5]: 61.1%; activity at 100 µM [6]: 61.5%; activity at 100 µM [7]: 62.7%; activity at 100 µM [8]: 60.6%
O=C(O)/C=C/C=C/c1cccc(Oc2cc(Cl)cc(Cl)c2)c1 [MMV1633963]				44.9	58.7	58.6	17.4	7.42	7.5	5.34	9.43						
O=C(NCCN1CCCCC1)c1cccc(C(F)(F)F)c1 [MMV1633964]	87.8	90.2	82.3														activity at 25 µM [1]: 86.8%; activity at 100 µM [5]: 77.6%; activity at 100 µM [6]: 81.1%; activity at 100 µM [7]: 90.5%; activity at 100 µM [8]: 75.1%
COc1c(NC(=O)[C@H]2CC[C@@H](COc3ccc([N+](=O)[O-])cc3)CC2)c(F)cc2c(=O)c(C(=O)O)cn(C3CC3)c12 [MMV1633965]	86.3	88.2	76														activity at 25 µM [17]: 83.5%; activity at 100 µM [18]: 82.8%; activity at 100 µM [19]: 86.1%; activity at 100 µM [20]: 78.7%; activity at 100 µM [21]: 83.4%
Nc1nc(-c2ccccc2)nc2[nH]nc(Nc3ccc(C(F)(F)F)cc3)c12 [MMV1633968]				111	147	105	80.3	86.9	89.5	94	77.2						
O=C(O)c1ccc(-c2ccc(O[C@H]3O[C@H](CO)[C@@H](O)[C@H](O)[C@@H]3O)cc2)cc1 [MMV1633970]	83.4	84.3	74.7														activity at 25 µM [17]: 80.8%; activity at 100 µM [18]: 73.9%; activity at 100 µM [19]: 68.9%; activity at 100 µM [20]: 82.1%; activity at 100 µM [21]: 70.6%
CN(C/C=C/C#CC(C)(C)C)Cc1cccc2ccccc12 [MMV1634359]	132	99.8	60.4									97.3	81.5	86.8	58.9	98.8	
O=C1c2cccc3cccc(c23)C(=O)N1CC1CO1 (centres unmarked) [MMV1634360]	65.4	62.1	55.4									61	2.87	-2.26	3.27	7.61	
N[C@H]1CCC[C@H]1C(=O)O [MMV1634361]				92.1	98.3	98.6	79.4	96.6	90.9	120	79.2						
OB1OCc2cc(Cl)ccc21 [MMV1634363]	51.2	-4.3	52.5									33.1	61.8	40.7	85.6	59.1	
